Measured values from US10370370B2, “Aminobenzisoxazole compounds as agonists of α7-nicotinic acetylcholine receptors” (FORUM PHARMACEUTICALS, INC., priority 2015, dated 2019).
Structures can show the parent of a compound that is named as a salt.

biological target: human α7 nAChR (Homo sapiens (Human), UniProt P36544); assay: not given; assay type: binding; details: above described assay provided by Cerep
Sequence (P36544 23-502 limits assumed): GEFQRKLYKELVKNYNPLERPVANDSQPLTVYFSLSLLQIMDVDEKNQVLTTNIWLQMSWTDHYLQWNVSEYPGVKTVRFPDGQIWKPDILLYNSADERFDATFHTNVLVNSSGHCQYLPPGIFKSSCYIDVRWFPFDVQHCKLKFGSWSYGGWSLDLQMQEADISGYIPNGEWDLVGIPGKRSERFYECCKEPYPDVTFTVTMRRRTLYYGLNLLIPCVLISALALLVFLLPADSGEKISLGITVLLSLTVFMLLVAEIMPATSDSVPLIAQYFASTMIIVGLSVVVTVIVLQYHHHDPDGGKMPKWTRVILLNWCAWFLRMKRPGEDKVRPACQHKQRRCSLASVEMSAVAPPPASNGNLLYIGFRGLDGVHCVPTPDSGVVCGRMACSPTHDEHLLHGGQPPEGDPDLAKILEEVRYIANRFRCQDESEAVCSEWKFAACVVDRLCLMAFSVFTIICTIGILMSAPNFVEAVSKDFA

Question: With `Cc1ccc(-c2ccc(OC3CN4CCC3CC4)cn2)cc1` (stereo not shown) [AQW051] as the compound, how does the Ki read?
Answer: Its Ki is 255 nM.

biological target: human α7 nAChRs transiently expressed in Xenopus laevis oocytes (Homo sapiens (Human), UniProt P36544); assay: Oocyte Electrophysiology Screen (two-electrode voltage-clamp, HiQScreen); assay type: cell-based; details: test compound at 0.01 mM, response as percentage of that evoked by 0.2 mM ACh; hydrochloride
Description: Oocyte Electrophysiology Screen (% ACh @ 10 μM Oocyte)
The Oocyte Electrophysiology Screen studies were performed under contract by HiQScreen Geneva, Switzerland. All experiments were carried out at human α7 nAChRs transiently expressed in Xenopus laevis oocytes using the method of cDNA expression. Currents evoked by acetylcholine or other agonist ligands were recorded using the standard two-electrode voltage-clamp configuration (TEVC). X. laevis oocytes were prepared and injected using standard procedures. Briefly, ovaries were harvested from X. laevis females that were deeply anesthetized and pithed following the animal rights rule from the Geneva canton. A small piece of ovary was isolated for immediate preparation while the remaining part was placed at 4° C. in a sterile Barth solution containing in mM: NaCl 88, KCl 1, NaHCO3 2.4, HEPES 10, MgSO4.7H2O 0.82, Ca(NO3)2.4H2O 0.33, CaCl2.6H2O 0.41, at pH 7.4, and supplemented with 20 μg/mL of kanamycin, 100 unit/mL penicillin and 100 μg/mL streptomycin. On the second day following dissociation, oocytes were injected with 2 ng of cDNA per oocyte containing the gene encoding human α7 nicotinic acetylcholine receptor subunits using an automated injector (Hogg et al., 2008). All recordings were performed at 18° C. and cells were superfused with OR2 medium containing in mM: NaCl 82.5, KCl 2.5, HEPES 5, CaCl2.2H2O 2.5, pH 7.4. Cells were held at −80 mV. Data were filtered at 10 Hz, captured at 100 Hz and analyzed using proprietary data acquisition and analysis software running under Matlab (Mathworks Inc.).
Experimental Protocol and Analysis
After establishing a baseline transmembrane current, acetylcholine (ACh) was applied for 5 seconds at a concentration of 0.2 mM to establish a control ACh-evoked current response. Following a wash period of 90 s in OR2 medium (free of ACh), cells were then exposed for 30 s to the test compound applied at 0.01 mM. The same reference ACh test pulse was immediately given at the end of the compound exposure and again after 90 s of recovery in OR2 Medium (free of ACh or test compound). All data were determined in triplicate. The response evoked by the test compound was expressed as a percentage of that evoked by ACh: Response (% ACh)=100×(Itest/IACh) where Itest is the peak inward current measured during exposure to 0.01 mM of test compound and IACh is the peak inward current measured in the presence of ACh.
Results are provided in Table 2 (reported as % ACh @ 10 μM Oocyte).

Sequence of human α7 nAChRs transiently expressed in Xenopus laevis oocytes (P36544 23-502 limits assumed): as above

Question: Which “% ACh @ 10 μM Oocyte” value does the source give for `c1ccc2c(NC3CN4CCC3CC4)noc2c1` (single isomer, unassigned; enantiomer1) [Compound 1-P1] here?
Answer: Its value is 483 % ACh.

Question: With `Clc1cccc2c(NC3CN4CCC3CC4)noc12` (single isomer, unassigned; enantiomer1) [Compound 2-P1, 7-chloro-N-(quinuclidin-3-yl)benzo[d]isoxazol-3-amine-enantiomer1 hydrochloride] as the compound, how does the “% ACh @ 10 μM Oocyte” value read?
Answer: The value was 418 % ACh.

Question: Which “% ACh @ 10 μM Oocyte” value does the source give for `Clc1ccc2c(NC3CN4CCC3CC4)noc2c1` (single isomer, unassigned; enantiomer1) [Compound 3-P1, 6-chloro-N-(quinuclidin-3-yl)benzo[d]isoxazol-3-amine-enantiomer1 hydrochloride] here?
Answer: The value was 465 % ACh.

Question: With `Clc1ccc2onc(NC3CN4CCC3CC4)c2c1` (single isomer, unassigned; enantiomer1) [Compound 4-P1, 5-chloro-N-(quinuclidin-3-yl)benzo[d]isoxazol-3-amine-enantiomer1 hydrochloride] as the compound, how does the “% ACh @ 10 μM Oocyte” value read?
Answer: Its value is 326 % ACh.

Question: With `Cc1ccc2c(NC3CN4CCC3CC4)noc2c1` (single isomer, unassigned; enantiomer1) [Compound 5-P1, 6-methyl-N-(quinuclidin-3-yl)benzo[d]isoxazol-3-amine-enantiomer1 hydrochloride] as the compound, how does the “% ACh @ 10 μM Oocyte” value read?
Answer: Its value is 548 % ACh.

Question: Which “% ACh @ 10 μM Oocyte” value does the source give for `c1cc2c(NC3CN4CCC3CC4)noc2cc1C1CC1` (single isomer, unassigned; enantiomer1) [Compound 6-P1, 6-cyclopropyl-N-(quinuclidin-3-yl)benzo[d]isoxazol-3-amine-enantiomer1 hydrochloride] here?
Answer: Its value is 157 % ACh.

Question: For `COc1ccc2c(NC3CN4CCC3CC4)noc2c1` (single isomer, unassigned; enantiomer1) [Compound 7-P1, 6-methoxy-N-(quinuclidin-3-yl)benzo[d]isoxazol-3-amine-enantiomer1 hydrochloride], which “% ACh @ 10 μM Oocyte” value is on record?
Answer: Its value is 326 % ACh.

Question: For `FC(F)(F)c1ccc2c(NC3CN4CCC3CC4)noc2c1` (single isomer, unassigned; enantiomer1) [Compound 8-P1, N-(quinuclidin-3-yl)-6-(trifluoromethyl)benzo[d]isoxazol-3-amine-enantiomer1 hydrochloride], which “% ACh @ 10 μM Oocyte” value is on record?
Answer: The value was 26 % ACh.

Question: For `c1ccc2c(NC3CN4CCC3CC4)noc2c1` (single isomer, unassigned; enantiomer2) [Compound 1-P2, N-(quinuclidin-3-yl)benzo[d]isoxazol-3-amine-enantiomer2 hydrochloride], which “% ACh @ 10 μM Oocyte” value is on record?
Answer: The value was 206 % ACh.

Question: For `Clc1cccc2c(NC3CN4CCC3CC4)noc12` (single isomer, unassigned; enantiomer2) [Compound 2-P2, 7-chloro-N-(quinuclidin-3-yl)benzo[d]isoxazol-3-amine-enantiomer2 hydrochloride], which “% ACh @ 10 μM Oocyte” value is on record?
Answer: The value was 363 % ACh.

Question: Which “% ACh @ 10 μM Oocyte” value does the source give for `Clc1ccc2c(NC3CN4CCC3CC4)noc2c1` (single isomer, unassigned; enantiomer2) [Compound 3-P2, 6-chloro-N-(quinuclidin-3-yl)benzo[d]isoxazol-3-amine-enantiomer2 hydrochloride] here?
Answer: The value was 379 % ACh.

Question: With `Clc1ccc2onc(NC3CN4CCC3CC4)c2c1` (single isomer, unassigned; enantiomer2) [Compound 4-P2, 5-chloro-N-(quinuclidin-3-yl)benzo[d]isoxazol-3-amine-enantiomer2 hydrochloride] as the compound, how does the “% ACh @ 10 μM Oocyte” value read?
Answer: Its value is 17 % ACh.

Question: With `Cc1ccc2c(NC3CN4CCC3CC4)noc2c1` (single isomer, unassigned; enantiomer2) [Compound 5-P2, 6-methyl-N-(quinuclidin-3-yl)benzo[d]isoxazol-3-amine-enantiomer2 hydrochloride] as the compound, how does the “% ACh @ 10 μM Oocyte” value read?
Answer: Its value is 645 % ACh.

Question: With `c1cc2c(NC3CN4CCC3CC4)noc2cc1C1CC1` (single isomer, unassigned; enantiomer2) [Compound 6-P2, 6-cyclopropyl-N-(quinuclidin-3-yl)benzo[d]isoxazol-3-amine-enantiomer2 hydrochloride] as the compound, how does the “% ACh @ 10 μM Oocyte” value read?
Answer: Its value is 355 % ACh.

Question: With `COc1ccc2c(NC3CN4CCC3CC4)noc2c1` (single isomer, unassigned; enantiomer2) [Compound 7-P2, 6-methoxy-N-(quinuclidin-3-yl)benzo[d]isoxazol-3-amine-enantiomer2 hydrochloride] as the compound, how does the “% ACh @ 10 μM Oocyte” value read?
Answer: Its value is 427 % ACh.

Question: For `FC(F)(F)c1ccc2c(NC3CN4CCC3CC4)noc2c1` (single isomer, unassigned; enantiomer2) [Compound 8-P2, N-(quinuclidin-3-yl)-6-(trifluoromethyl)benzo[d]isoxazol-3-amine-enantiomer2 hydrochloride], which “% ACh @ 10 μM Oocyte” value is on record?
Answer: The value was 221 % ACh.

biological target: recombinantly expressed human α7-nAChR (Homo sapiens (Human), UniProt P36544); assay: not given; details: [125I] α-BTX radioligand, read-out: Ki (lit); cited from earlier work
Sequence (P36544 23-502 limits assumed): as above

Question: For `Cc1ccc(-c2ccc(OC3CN4CCC3CC4)cn2)cc1` (stereo not shown) [AQW051], which Ki is on record?
Answer: Its Ki is 28 nM.

biological target: human 5-HT3 serotonin receptors (Homo sapiens (Human), UniProt P46098); assay: [3H]BRL 43694 competition binding (Cerep); details: CHO cell membranes expressing human 5-HT3 receptors
Sequence (P46098 24-478): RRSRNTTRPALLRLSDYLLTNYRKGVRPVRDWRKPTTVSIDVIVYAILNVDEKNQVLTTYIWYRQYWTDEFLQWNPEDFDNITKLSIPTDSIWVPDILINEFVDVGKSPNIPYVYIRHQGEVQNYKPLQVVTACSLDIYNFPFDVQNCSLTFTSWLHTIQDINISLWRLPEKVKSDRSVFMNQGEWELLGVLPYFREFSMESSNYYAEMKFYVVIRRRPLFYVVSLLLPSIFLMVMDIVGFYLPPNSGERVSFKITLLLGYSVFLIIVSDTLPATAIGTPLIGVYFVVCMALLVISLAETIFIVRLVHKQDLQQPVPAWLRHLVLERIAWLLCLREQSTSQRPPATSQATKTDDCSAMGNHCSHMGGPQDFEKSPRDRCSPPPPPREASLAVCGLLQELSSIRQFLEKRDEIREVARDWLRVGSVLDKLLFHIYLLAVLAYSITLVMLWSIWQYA

Question: With `Cc1c(Cl)ccc2c(N[C@H]3CN4CCC3CC4)noc12` [Compound (R)-23, (R)-6-chloro-7-methyl-N-(quinuclidin-3-yl)benzo[d]isoxazol-3-amine hydrochloride] as the compound, how does the Ki read?
Answer: Its Ki is 190 nM.
